Data taken from patent US4620014A, “2-furylbutyrolactones and methods for using same” (priority 1983, dated 1986).
Where two headings read alike, the source gives them in different places.

Assays:
[1] = tested on: spleen lymphocytes of C57BL/6 mice; assay: In vivo treatment, lymphocyte stimulation assay, C57BL/6 mice
Description: The purpose of this assay is to challenge lymphocytes in microcultures with one or more polyclonal mitogens at concentrations that will induce mitogenesis within 72 hours of stimulation.
In the mouse model, spleens are removed from different strains of mice and the spleen cells are teased free and suspended in RPMI-1640 tissue culture medium at a concentration of usually 1×10^7 ml. These cells are dispensed at a concentration of 5.0×10^5 cells per microculture well in a 96 well flat bottom 96 well tissue culture plate. All testing of the compounds of this invention or mitogens are done in replicates of 10. The cells are then treated with PHA, Con-A, specific antigens, or buffer only. If in vitro testing is done, varying concentrations of the compounds of this invention or buffer only are added to the cells as well. After treatment with the mitogens and/or compounds of this invention, the cells are incubated for 72 hours. The response of these cells to mitogens and/or the compounds of this invention is assessed using ^14 C-thymidine labeling on the fourth day at a concentration of 0.01 μCi/well. The labeled cells are harvested using a lymphocyte harvestor and placed onto fibrous paper discs. A scintillation cocktail is added to vials contaning the discs and the results are obtained using a LKB-liquid scintillation counter (Model 1216/Rackbeta II). The data is expressed as a ratio of the cpm of the mitogen stimulated group to the control (non-mitogen) treated group=lymphocyte stimulation index (LSI).
The lymphocyte stimulation assay may be performed directly on spleen cells obtained from various strains of mice not treated with the compounds of this invention or on lymphocytes obtained from […]. […] Alternatively, the mice may be treated in vivo with the compounds of this invention by intraperitoneal multi-dose schedules, followed by sacrifice and harvesting spleen lymphocytes. These cells are then tested for their response to polyclonal mitogens or specific antigens used to immunize the mice. In this sytem however, no additional compound is added to the in vitro lymphocyte stimulation assay system.
Two strains of mice, C57BL/6 and BDF1 are treated for seven days with i.p. administration of either 25, 50, 100, 200, or 400 mg/kg of Cpd. 1 or just buffer. This is followed on the eighth day by a lymphocyte stimulation assay.
A comparison is made of the lymphocyte response to C57BL/6 mice treated 4 days with i.p. administration of either 50, 100, 200, 400 or 800 mg/kg of Cpd. 1, 50, 100, 200, 400 or 800 mg/kg of ascorbic acid (AA), or just buffer. This is followed on the fifth day by a lymphocyte stimulation assay.
Two strains of mice, C57BL/6 and BALB/c, are treated 4 days with i.p. administration of either 50, 100, 200, or 400 mg/kg of Cpd. 1, or just buffer. This is followed on the fifth day by a lymphocyte stimulation assay.
C57BL/6 mice were treated with four daily i.p. doses of either 50, 100, 200, or 400 mg/kg of Cpd. 1 or just buffer. On the fifth day a lymphocyte stimulation assay was performed.
Mice of the C57BL/6 strain were tested with i.p. administration of either 100, 200, 400 or 600 mg/kg of Cpd. 1 or just buffer. This was followed by removal of spleens and treatment of lymphocytes therein with mitogens PHA and Con-A.
The compound of Example 2, Cpd. 2, was tested in vivo by using C57BL/6 mice and treating them with […] or just buffer for four consecutive days by the i.p. route. On the fifth day a lymphocyte stimulation assay was performed.

[2] = tested on: antibody response to bovine serum albumin (BSA); conditions: for stimulation of antibody response to BSA: day 13
Description: The effect of the compounds of this invention on the immune response to specific antigens involves immunization of mice with specific anitgens such as bovine serum albumin (BSA) or keyhole limpet hemocyanin (KLH). Following immunization, it is possible to assess the cell-mediated or humoral (antibody) immune response to these antigens by various methods:
(2) Antibody response to soluble antigens such as BSA or KLH can be quantitated using a micro-ELISA solid phase heterogeneous immunoassay. The assay can be designed to quantitate class specific immunoglobulins (i.e., IgG or IgM).
The cut-off for the titer was the highest dilution of mouse serum yielding an O.D.≤0.1 when read on the MR-600 Dynatech micro-ELISA reader.
Mice of the C57BL/6 strain are given i.p. injections of either 50, 100, 200 or 400 mg/kg of Cpd. 1 or buffer for twelve days (days 1-12). An antigen, bovine serum albumin (BSA), is administered intraperitoneally with Freund's Complete Adjuvant (FCA) on days 1, 7 and 14. Blood samples are taken for assay of the antibody response on days 0, 5, 13, and 19.

C57BL/6 mice = conditions: 10 mice per dose
Description: Single dose LD50 in C57BL/6 mice for Cpd. 1 is determined following the method of Spearman and Karber described in Basic Exercises in Immunochemistry, 1979. Briefly, 0.5 ml of each dose is given to each of ten mice. The survivors are counted after 3 days and the LD50 is calculated using the following formula: [formula] where D=fold diferences between doses, R=total number dead, and N=total number of animals tested.

Question: How did the “T-lymphocyte proliferation, PHA” value ([1]; 200 mg/kg i.p., 7 days) turn out when Cc1ccc(C2(O)C(=O)OC3C(O)COC32O)o1.Cc1ccc(C2(O)C(=O)OC3C(O)COC32O)o1.O=C1CCC(=O)O1 (centres unmarked) [Cpd. 1] was run?
Answer: stimulation of T-lymphocyte proliferation

Question: What about the “response to PHA” value ([1]; 400 mg/kg compared to 200 mg/kg, four daily doses) of the same molecule?
Answer: decrease in the response to PHA

Question: And the PHA response ([1]; 400 mg/kg i.p., 7 days)?
Answer: strong suppression of the PHA response

Question: And the Con-A response ([1]; 400 mg/kg i.p., 7 days, compared to 200 mg/kg)?
Answer: suppression of the Con-A response

Question: What about the “DNA synthesis of spleen cell lymphocytes” value ([1]; 400 mg/kg, compared to 200 mg/kg, 4 days) of the same molecule?
Answer: suppress DNA synthesis

Question: And the evidence of toxicity ([1]; 600 mg/kg i.p., five day administration)?
Answer: no evidence of toxicity

Question: What about the stimulation of lymphocytes ([1]; 600 mg/kg, compared to 100 to 400 mg/kg, five days) of the same molecule?
Answer: less stimulation

Question: And the “lymphocyte DNA synthesis, PHA and Con-A” value ([1]; 50, 100 and 200 mg/kg i.p., 4 days)?
Answer: tend to stimulate lymphocyte DNA synthesis

Question: And the Con-A response ([1]; 50, 100 and 200 mg/kg i.p., 7 days)?
Answer: increased

Question: And the “response to polyclonal mitogens” value ([1]; 50-400 mg/kg i.p., four daily doses)?
Answer: Stimulation of the response to polyclonal mitogens

Question: And the “effect, Con-A” value ([1]; 50 to 200 mg/kg i.p., 4 days)?
Answer: significant stimulatory effect

Question: What about the “lymphocyte DNA synthesis, PHA” value ([1]; 100 and 200 mg/kg i.p., 4 days) of the same molecule?
Answer: tend to stimulate lymphocyte DNA synthesis

Question: And the “Con-A and PHA treated lymphocytes” value ([1]; 100 to 400 mg/kg, five days)?
Answer: significant stimulation

Question: What about the “DNA synthesis of spleen lymphocytes, PHA” value ([1]; 400 to 800 mg/kg i.p., 4 days) of the same molecule?
Answer: suppress DNA synthesis of spleen lymphocytes

Question: What about the “effect, Con-A” value ([1]; 400 to 800 mg/kg i.p., 4 days) of the same molecule?
Answer: significant anti-proliferative effect

Question: What about the “Micro-ELISA Titer” value ([2]; 50 mg/kg i.p., day 5) of the same molecule?
Answer: N/R

Question: And the “Micro-ELISA Titer” value ([2]; 50 mg/kg i.p., prebleed)?
Answer: N/R

Question: What about the “antibody titer over the control” value ([2]; 50 mg/kg, day 19) of the same molecule?
Answer: slight increase

Question: What about the “Micro-ELISA Titer” value ([2]; 100 mg/kg i.p., day 5) of the same molecule?
Answer: N/R

Question: And the “Micro-ELISA Titer” value ([2]; 100 mg/kg i.p., prebleed)?
Answer: N/R

Question: And the “Micro-ELISA Titer” value ([2]; 200 mg/kg i.p., day 5)?
Answer: N/R

Question: What about the “Micro-ELISA Titer” value ([2]; 200 mg/kg i.p., prebleed) of the same molecule?
Answer: N/R

Question: And the “Micro-ELISA Titer” value ([2]; 400 mg/kg i.p., day 5)?
Answer: N/R

Question: And the “Micro-ELISA Titer” value ([2]; 400 mg/kg i.p., prebleed)?
Answer: N/R

Question: And the “stimulation of antibody response to BSA” value ([2]; 50 and 100 mg/kg)?
Answer: slight amount of stimulation

Question: What about the “increase of antibody response to BSA over controls” value ([2]; 100 and 200 mg/kg, day 19) of the same molecule?
Answer: 16 fold

Question: What about the “stimulation of antibody response to BSA” value ([2]; 200 and 400 mg/kg) of the same molecule?
Answer: significant (four-fold) stimulation

Question: And the “Number Dead on Day 3” value (C57BL/6 mice; single i.p. 1,000 mg/kg)?
Answer: 0

Question: And the “Number Dead on Day 3” value (C57BL/6 mice; single i.p. 2,000 mg/kg)?
Answer: 0

Question: What about the “Number Dead on Day 3” value (C57BL/6 mice; single i.p. 4,000 mg/kg) of the same molecule?
Answer: 7

Question: What about the “Number Dead on Day 3” value (C57BL/6 mice; single i.p. 8,000 mg/kg) of the same molecule?
Answer: 10

Question: And the “Number Dead on Day 3” value (C57BL/6 mice; single i.p. 16,000 mg/kg)?
Answer: 10
